{
  "source": "patent US8685720B2",
  "about": "“Engineered cellular pathways for programmed autoregulation of differentiation” (The Trustees of Princeton University, priority 2006, dated 2014)",
  "test_system": "mammalian version of LuxR in 293FT cells",
  "assay": "30C6HSL detection by mammalian receiver cells expressing chimeric LuxR-activator",
  "assay_type": "cell-based",
  "conditions": "P65-LuxR fusion, synthetic lux promoter, exogenous 30C6HSL",
  "text": "FIG. 2: (a) 30C6HSL synthesis by mammalian 293FT cells. Supernatant from the cells' growth media was collected and filter sterilized. Histograms show the fluorescence intensities of bacterial cells sensitive to 30C6HSL grown in the filtered supernatant, expressing green fluorescent protein due to 30C6HSL from the mammalian cells. (b) 30C6HSL detection by mammalian receiver cells. […] (c) Controlled stem cell differentiation with genetically inducible systems. Three different lentiviral genetic constructs were built, enabling exogenous chemical induction into myoblasts, adipocytes, or maintenance of stem cell properties. […] In addition, the marker protein for myoblasts, dystrophin, was expressed from these cells (data not shown). […] In a separate experiment, induced expression of Nanog supplanted the need for a growth factor usually required to maintain the overall character of mES cells.\nThe 30C6HSL detection pathway consists of a signal transducer that binds 30C6HSL and activates transcription of genes controlled by a synthetic lux promoter. The 30C6HSL signal transducer is a chimeric LuxR-activator protein created by the fusion of a P65 mammalian activation domain to a codon optimized mammalian version of a bacterial LuxR.",
  "note": "Entries after “also recorded” stand apart in the source; their conditions may differ.",
  "data": [
    {"compound": "CCCC(=O)CC(=O)N[C@H]1CCOC1=O", "note": "[30C6HSL]", "values": [
      {"measurement": "response (EGFP expression) to the addition of 30C6HSL", "result": "strong response; also recorded: express EGFP only upon induction with exogenous 30C6HSL"}
    ]}
  ]
}
